Results reported in patent US20170190671A1, “BIS(ARYL)CATECHOL DERIVATIVES AS HERBICIDES” (E I DU PONT DE NEMOURS AND COMPANY, priority 2014, published 2017).

Tests used:
Test in all cases: Test E preemergence
Type in all cases: in vivo
Conditions in all cases: scale 0 to 100
[1] = system: large (Lg) crabgrass (Digitaria sanguinalis)
How it was run: (§1)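 Visual ratings from 0 = no effect to 100 = complete control, scored against untreated controls after 14 to 21 days in the greenhouse. Compounds, in a non-phytotoxic solvent mix with surfactant, went onto silt loam soil right after sowing (preemergence) or onto 2–18 cm plants at the 1- to 4-leaf stage (postemergence).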

[2] = system: morningglory (Ipomoea coccinea)
How it was run: as §1

[3] = system: Italian ryegrass (Lolium multiflorum)
How it was run: as §1

[4] = system: green foxtail (Setaria viridis)
How it was run: as §1

[5] = system: hairy beggarticks (Bidens pilosa)
How it was run: as §1

[6] = system: barnyardgrass (Echinochloa crus-galli)
How it was run: as §1

[7] = system: corn (Zea mays)
How it was run: as §1

[8] = system: velvetleaf (Abutilon theophrasti)
How it was run: as §1

[9] = system: kochia (Kochia scoparia)
How it was run: as §1

[10] = system: ragweed (common ragweed, Ambrosia elatior)
How it was run: as §1

[11] = system: arrowleaf sida (Sida rhombifolia)
How it was run: as §1

[12] = system: Surinam grass (Brachiaria decumbens)
How it was run: as §1

[13] = system: nightshade (eastern black nightshade, Solanum ptycanthum)
How it was run: as §1

[14] = system: goosegrass (Eleusine indica)
How it was run: as §1

[15] = system: dayflower (Virginia (VA) dayflower, Commelina virginica)
How it was run: as §1

[16] = system: waterhemp (common waterhemp, Amaranthus rudis)
How it was run: as §1

[17] = system: field bindweed (Convolvulus arvensis)
How it was run: as §1

[18] = system: sandbur (southern sandbur, Cenchrus echinatus)
How it was run: as §1

[19] = system: soybean (Glycine max)
How it was run: as §1

[20] = system: Brazilian crabgrass (Digitaria horizontalis)
How it was run: as §1

[21] = system: palmer pigweed (Amaranthus palmeri)
How it was run: as §1

Clc1cnc(Oc2cccc(Br)c2Oc2ncc(Cl)cn2)nc1 [Compound 19, 2,2′-[[3-bromo-1,2-phenylene]bis(oxy)]bis[5-chloropyrimidine]]
Plant response rating, Crabgrass, Large ([1]; 16 g ai/ha): 20
Plant response rating, Crabgrass, Large ([1]; 31 g ai/ha): 80
Plant response rating, Crabgrass, Large ([1]; 62 g ai/ha): 100
Plant response rating, Crabgrass, Large ([1]; 125 g ai/ha): 100
Plant response rating, Morningglory ([2]; 16 g ai/ha): 0
Plant response rating, Morningglory ([2]; 31 g ai/ha): 0
Plant response rating, Morningglory ([2]; 62 g ai/ha): 5
Plant response rating, Morningglory ([2]; 125 g ai/ha): 65
Plant response rating, Ryegrass, Italian ([3]; 16 g ai/ha): 0
Plant response rating, Ryegrass, Italian ([3]; 31 g ai/ha): 0
Plant response rating, Ryegrass, Italian ([3]; 62 g ai/ha): 65
Plant response rating, Ryegrass, Italian ([3]; 125 g ai/ha): 70
Plant response rating, Foxtail, Green ([4]; 16 g ai/ha): 0
Plant response rating, Foxtail, Green ([4]; 31 g ai/ha): 60
Plant response rating, Foxtail, Green ([4]; 62 g ai/ha): 98
Plant response rating, Foxtail, Green ([4]; 125 g ai/ha): 100
Plant response rating, Beggarticks ([5]; 16 g ai/ha): 0
Plant response rating, Beggarticks ([5]; 31 g ai/ha): 0
Plant response rating, Beggarticks ([5]; 62 g ai/ha): 0
Plant response rating, Beggarticks ([5]; 125 g ai/ha): 0
Plant response rating, Barnyardgrass ([6]; 16 g ai/ha): 0
Plant response rating, Barnyardgrass ([6]; 31 g ai/ha): 0
Plant response rating, Barnyardgrass ([6]; 62 g ai/ha): 20
Plant response rating, Barnyardgrass ([6]; 125 g ai/ha): 70
Plant response rating, Corn ([7]; 16 g ai/ha): 0
Plant response rating, Corn ([7]; 31 g ai/ha): 0
Plant response rating, Corn ([7]; 62 g ai/ha): 20
Plant response rating, Corn ([7]; 125 g ai/ha): 50
Plant response rating, Velvetleaf ([8]; 16 g ai/ha): 0
Plant response rating, Velvetleaf ([8]; 31 g ai/ha): 0
Plant response rating, Velvetleaf ([8]; 62 g ai/ha): 50
Plant response rating, Velvetleaf ([8]; 125 g ai/ha): 100
Plant response rating, Kochia ([9]; 16 g ai/ha): 35
Plant response rating, Kochia ([9]; 31 g ai/ha): 75
Plant response rating, Kochia ([9]; 62 g ai/ha): 98
Plant response rating, Kochia ([9]; 125 g ai/ha): 100
Plant response rating, Ragweed ([10]; 16 g ai/ha): 0
Plant response rating, Ragweed ([10]; 31 g ai/ha): 0
Plant response rating, Ragweed ([10]; 62 g ai/ha): 10
Plant response rating, Ragweed ([10]; 125 g ai/ha): 50
Plant response rating, Arrowleaf Sida ([11]; 16 g ai/ha): 65
Plant response rating, Arrowleaf Sida ([11]; 31 g ai/ha): 40
Plant response rating, Arrowleaf Sida ([11]; 62 g ai/ha): 100
Plant response rating, Arrowleaf Sida ([11]; 125 g ai/ha): 100
Plant response rating, Surinam Grass ([12]; 16 g ai/ha): 0
Plant response rating, Surinam Grass ([12]; 31 g ai/ha): 0
Plant response rating, Surinam Grass ([12]; 62 g ai/ha): 10
Plant response rating, Surinam Grass ([12]; 125 g ai/ha): 10
Plant response rating, Nightshade ([13]; 16 g ai/ha): 0
Plant response rating, Nightshade ([13]; 31 g ai/ha): 0
Plant response rating, Nightshade ([13]; 62 g ai/ha): 65
Plant response rating, Nightshade ([13]; 125 g ai/ha): 98
Plant response rating, Goosegrass ([14]; 16 g ai/ha): 5
Plant response rating, Goosegrass ([14]; 31 g ai/ha): 75
Plant response rating, Goosegrass ([14]; 62 g ai/ha): 90
Plant response rating, Goosegrass ([14]; 125 g ai/ha): 98
Plant response rating, Dayflower, VA ([15]; 16 g ai/ha): 0
Plant response rating, Dayflower, VA ([15]; 31 g ai/ha): 0
Plant response rating, Dayflower, VA ([15]; 62 g ai/ha): 5
Plant response rating, Dayflower, VA ([15]; 125 g ai/ha): 10
Plant response rating, Waterhemp ([16]; 16 g ai/ha): 65
Plant response rating, Waterhemp ([16]; 31 g ai/ha): 65
Plant response rating, Waterhemp ([16]; 62 g ai/ha): 100
Plant response rating, Waterhemp ([16]; 125 g ai/ha): 100
Plant response rating, Field Bindweed ([17]; 16 g ai/ha): 0
Plant response rating, Field Bindweed ([17]; 31 g ai/ha): 0
Plant response rating, Field Bindweed ([17]; 62 g ai/ha): 0
Plant response rating, Field Bindweed ([17]; 125 g ai/ha): 10
Plant response rating, Sandbur ([18]; 16 g ai/ha): 0
Plant response rating, Sandbur ([18]; 31 g ai/ha): 0
Plant response rating, Sandbur ([18]; 62 g ai/ha): 0
Plant response rating, Sandbur ([18]; 125 g ai/ha): 20
Plant response rating, Soybean ([19]; 16 g ai/ha): 0
Plant response rating, Soybean ([19]; 31 g ai/ha): 0
Plant response rating, Soybean ([19]; 62 g ai/ha): 0
Plant response rating, Soybean ([19]; 125 g ai/ha): 50
Plant response rating, Crabgrass, Brazil ([20]; 16 g ai/ha): 0
Plant response rating, Crabgrass, Brazil ([20]; 31 g ai/ha): 40
Plant response rating, Crabgrass, Brazil ([20]; 62 g ai/ha): 100
Plant response rating, Crabgrass, Brazil ([20]; 125 g ai/ha): 100
Plant response rating, Pigweed, Palmer ([21]; 16 g ai/ha): 0
Plant response rating, Pigweed, Palmer ([21]; 31 g ai/ha): 70
Plant response rating, Pigweed, Palmer ([21]; 62 g ai/ha): 100
Plant response rating, Pigweed, Palmer ([21]; 125 g ai/ha): 100

Fc1cccc(Oc2ncc(Cl)cn2)c1Oc1ncc(Cl)cn1 [Compound 21, 2,2′-[[3-fluoro-1,2-phenylene]bis(oxy)]bis[5-chloropyrimidine]]
Plant response rating, Crabgrass, Large ([1]; 16 g ai/ha): 50
Plant response rating, Crabgrass, Large ([1]; 31 g ai/ha): 75
Plant response rating, Crabgrass, Large ([1]; 62 g ai/ha): 95
Plant response rating, Crabgrass, Large ([1]; 125 g ai/ha): 100
Plant response rating, Morningglory ([2]; 16 g ai/ha): 10
Plant response rating, Morningglory ([2]; 31 g ai/ha): 50
Plant response rating, Morningglory ([2]; 62 g ai/ha): 90
Plant response rating, Morningglory ([2]; 125 g ai/ha): 80
Plant response rating, Ryegrass, Italian ([3]; 16 g ai/ha): 0
Plant response rating, Ryegrass, Italian ([3]; 31 g ai/ha): 0
Plant response rating, Ryegrass, Italian ([3]; 62 g ai/ha): 35
Plant response rating, Ryegrass, Italian ([3]; 125 g ai/ha): 70
Plant response rating, Foxtail, Green ([4]; 16 g ai/ha): 15
Plant response rating, Foxtail, Green ([4]; 31 g ai/ha): 50
Plant response rating, Foxtail, Green ([4]; 62 g ai/ha): 70
Plant response rating, Foxtail, Green ([4]; 125 g ai/ha): 100
Plant response rating, Beggarticks ([5]; 16 g ai/ha): 0
Plant response rating, Beggarticks ([5]; 31 g ai/ha): 0
Plant response rating, Beggarticks ([5]; 62 g ai/ha): 0
Plant response rating, Beggarticks ([5]; 125 g ai/ha): 0
Plant response rating, Barnyardgrass ([6]; 16 g ai/ha): 15
Plant response rating, Barnyardgrass ([6]; 31 g ai/ha): 20
Plant response rating, Barnyardgrass ([6]; 62 g ai/ha): 65
Plant response rating, Barnyardgrass ([6]; 125 g ai/ha): 100
Plant response rating, Corn ([7]; 16 g ai/ha): 0
Plant response rating, Corn ([7]; 31 g ai/ha): 0
Plant response rating, Corn ([7]; 62 g ai/ha): 10
Plant response rating, Corn ([7]; 125 g ai/ha): 50
Plant response rating, Velvetleaf ([8]; 16 g ai/ha): 80
Plant response rating, Velvetleaf ([8]; 31 g ai/ha): 70
Plant response rating, Velvetleaf ([8]; 62 g ai/ha): 100
Plant response rating, Velvetleaf ([8]; 125 g ai/ha): 100
Plant response rating, Kochia ([9]; 16 g ai/ha): 20
Plant response rating, Kochia ([9]; 31 g ai/ha): 50
Plant response rating, Kochia ([9]; 62 g ai/ha): 75
Plant response rating, Kochia ([9]; 125 g ai/ha): 100
Plant response rating, Ragweed ([10]; 16 g ai/ha): 0
Plant response rating, Ragweed ([10]; 31 g ai/ha): 50
Plant response rating, Ragweed ([10]; 62 g ai/ha): 50
Plant response rating, Ragweed ([10]; 125 g ai/ha): 98
Plant response rating, Arrowleaf Sida ([11]; 16 g ai/ha): 90
Plant response rating, Arrowleaf Sida ([11]; 31 g ai/ha): 100
Plant response rating, Arrowleaf Sida ([11]; 62 g ai/ha): 100
Plant response rating, Arrowleaf Sida ([11]; 125 g ai/ha): 100
Plant response rating, Surinam Grass ([12]; 16 g ai/ha): 0
Plant response rating, Surinam Grass ([12]; 31 g ai/ha): 10
Plant response rating, Surinam Grass ([12]; 62 g ai/ha): 0
Plant response rating, Surinam Grass ([12]; 125 g ai/ha): 50
Plant response rating, Nightshade ([13]; 16 g ai/ha): 80
Plant response rating, Nightshade ([13]; 31 g ai/ha): 90
Plant response rating, Nightshade ([13]; 62 g ai/ha): 98
Plant response rating, Nightshade ([13]; 125 g ai/ha): 100
Plant response rating, Goosegrass ([14]; 16 g ai/ha): 10
Plant response rating, Goosegrass ([14]; 31 g ai/ha): 50
Plant response rating, Goosegrass ([14]; 62 g ai/ha): 75
Plant response rating, Goosegrass ([14]; 125 g ai/ha): 98
Plant response rating, Dayflower, VA ([15]; 16 g ai/ha): 0
Plant response rating, Dayflower, VA ([15]; 31 g ai/ha): 0
Plant response rating, Dayflower, VA ([15]; 62 g ai/ha): 25
Plant response rating, Dayflower, VA ([15]; 125 g ai/ha): 95
Plant response rating, Waterhemp ([16]; 16 g ai/ha): 65
Plant response rating, Waterhemp ([16]; 31 g ai/ha): 80
Plant response rating, Waterhemp ([16]; 62 g ai/ha): 100
Plant response rating, Waterhemp ([16]; 125 g ai/ha): 100
Plant response rating, Field Bindweed ([17]; 16 g ai/ha): 0
Plant response rating, Field Bindweed ([17]; 31 g ai/ha): 0
Plant response rating, Field Bindweed ([17]; 62 g ai/ha): 15
Plant response rating, Field Bindweed ([17]; 125 g ai/ha): 40
Plant response rating, Sandbur ([18]; 16 g ai/ha): 0
Plant response rating, Sandbur ([18]; 31 g ai/ha): 0
Plant response rating, Sandbur ([18]; 62 g ai/ha): 15
Plant response rating, Sandbur ([18]; 125 g ai/ha): 50
Plant response rating, Soybean ([19]; 16 g ai/ha): 0
Plant response rating, Soybean ([19]; 31 g ai/ha): 25
Plant response rating, Soybean ([19]; 62 g ai/ha): 65
Plant response rating, Soybean ([19]; 125 g ai/ha): 90
Plant response rating, Crabgrass, Brazil ([20]; 16 g ai/ha): 0
Plant response rating, Crabgrass, Brazil ([20]; 31 g ai/ha): 65
Plant response rating, Crabgrass, Brazil ([20]; 62 g ai/ha): 100
Plant response rating, Crabgrass, Brazil ([20]; 125 g ai/ha): 100
Plant response rating, Pigweed, Palmer ([21]; 16 g ai/ha): 0
Plant response rating, Pigweed, Palmer ([21]; 31 g ai/ha): 60
Plant response rating, Pigweed, Palmer ([21]; 62 g ai/ha): 100
Plant response rating, Pigweed, Palmer ([21]; 125 g ai/ha): 100
